Among the data in PubChem BioAssay (NCI) are GI50 and TGI values, retold here.

Among the test systems are DU-145 prostate; UACC-257 melanoma; SK-OV-3 ovarian; ACHN renal; NCI-H226 lung; SNB-75 CNS; CAKI-1 renal; OVCAR-5 ovarian; OVCAR-3 ovarian; LOX IMVI melanoma.
Common to all, as to test: NCI tumour cell line growth inhibition, 48 h

“And” between values parts separate entries of the source, which are not always exact repeats. Identical values can stand only once.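 Compound exposure: 48 hours, 5 concentrations, 96-well plates. The concentration for 50% growth inhibition is given as GI50. TGI is the concentration that stops growth completely.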

As for `CO[C@@H]1[C@H](OC(=O)NC(=O)CCl)CC[C@]2(CO2)[C@H]1[C@@]1(C)O[C@@H]1CC=C(C)C`, the GI50 in the experiment on DU-145 prostate is 22.2 µM; in the experiment on UACC-257 melanoma, 8.41 µM; with SK-OV-3 ovarian, 2.52 µM and 20.8 µM; with ACHN renal, 7.3 µM; in the experiment on NCI-H226 lung, 23.7 µM; in the experiment on CAKI-1 renal it was 29.6 µM. Also, the GI50 in the experiment on OVCAR-5 ovarian was 3.44 µM; in the experiment on OVCAR-3 ovarian, 8.68 µM; with LOX IMVI melanoma, 2.76 µM. Besides, the TGI with DU-145 prostate is 29.3 µM and 46.3 µM; in the experiment with UACC-257 melanoma, 28 µM; in the experiment with SK-OV-3 ovarian, 39.5 µM and 59.2 µM; in the experiment on ACHN renal it was 30.8 µM and 37.5 µM; with NCI-H226 lung, 50.4 µM and 50.3 µM; with SNB-75 CNS it was 24.7 µM and 200 µM. Moreover, the TGI with CAKI-1 renal is 25.7 µM and 59.1 µM; with OVCAR-5 ovarian, 35.2 µM; in the experiment with OVCAR-3 ovarian, 21.3 µM and 30.7 µM; with LOX IMVI melanoma, 25.2 µM and 34.6 µM.

For `COc1ccc2c(c1)CCC1C2CC[C@]2(C)/C(=N/OC(=O)Cc3ccccc3)CCC12` (stereo partly drawn), the GI50 in the experiment with DU-145 prostate is 28.6 µM; in the experiment on UACC-257 melanoma it was 18.7 µM; in the experiment on SK-OV-3 ovarian, 28.7 µM; with ACHN renal, 16.4 µM; in the experiment on NCI-H226 lung, 18.8 µM; in the experiment on SNB-75 CNS, 19.9 µM. The GI50 in the experiment with CAKI-1 renal was 16 µM; in the experiment with OVCAR-5 ovarian it was 46.6 µM; in the experiment with OVCAR-3 ovarian, 15.8 µM; in the experiment on LOX IMVI melanoma it was 18.5 µM. The TGI was 69.2 µM in the experiment with DU-145 prostate; 38.4 µM in the experiment with UACC-257 melanoma; 72.1 µM in the experiment with SK-OV-3 ovarian; 32 µM in the experiment on ACHN renal; 36.5 µM in the experiment with NCI-H226 lung; 47.7 µM with SNB-75 CNS. Further, the TGI was 30.9 µM with CAKI-1 renal, greater than 100 µM with OVCAR-5 ovarian, 31 µM with OVCAR-3 ovarian and 37.2 µM in the experiment on LOX IMVI melanoma.

As for `CCn1cnc2c(Nc3cccc(Cl)c3)nc(N[C@@H]3CCCC[C@@H]3N)nc21`, the GI50 in the experiment on DU-145 prostate is 1.01 µM; in the experiment with UACC-257 melanoma it was 1.57 µM; in the experiment on SK-OV-3 ovarian, 3.85 µM; with ACHN renal it was 1.34 µM; with NCI-H226 lung, 2 µM; with SNB-75 CNS, 0.745 µM. Besides, the GI50 is 2.6 µM in the experiment with CAKI-1 renal, 1.81 µM in the experiment on OVCAR-5 ovarian, 1.18 µM in the experiment with OVCAR-3 ovarian and 1.24 µM in the experiment with LOX IMVI melanoma. For the same molecule, the TGI with DU-145 prostate is 3.15 µM; in the experiment with UACC-257 melanoma, 3.11 µM; in the experiment with SK-OV-3 ovarian it was 10.8 µM; in the experiment on ACHN renal it was 3.6 µM; in the experiment with NCI-H226 lung, 5.95 µM; with SNB-75 CNS it was 2.23 µM. Moreover, the TGI in the experiment with CAKI-1 renal turned out to be 10.1 µM; with OVCAR-5 ovarian, 7.92 µM; in the experiment on OVCAR-3 ovarian, 4.4 µM; in the experiment on LOX IMVI melanoma, 2.57 µM.

For `COc1ccc2c(c1)CC[C@@H]1[C@@H]2CC[C@]2(C)C(c3ccco3)=C(C=O)C[C@@H]12`, the GI50 was 7.82 µM in the experiment with DU-145 prostate; 21.7 µM in the experiment with UACC-257 melanoma; 28.9 µM in the experiment on SK-OV-3 ovarian; 3.56 µM with ACHN renal; 21.6 µM in the experiment with NCI-H226 lung; 27.9 µM in the experiment with SNB-75 CNS. In addition, the GI50 is 2.5 µM in the experiment with CAKI-1 renal, 30.5 µM in the experiment on OVCAR-5 ovarian, 2.08 µM with OVCAR-3 ovarian and 6.89 µM in the experiment on LOX IMVI melanoma. Besides, the TGI is 27 µM in the experiment on DU-145 prostate; 44.6 µM in the experiment with UACC-257 melanoma; 77.7 µM with SK-OV-3 ovarian; 13.5 µM in the experiment with ACHN renal; 63.5 µM in the experiment with NCI-H226 lung; greater than 100 µM in the experiment on SNB-75 CNS. Besides, the TGI worked out at 7.59 µM in the experiment with CAKI-1 renal, 94.1 µM with OVCAR-5 ovarian, 12.4 µM in the experiment on OVCAR-3 ovarian and 23.8 µM with LOX IMVI melanoma.

With `CCOC(=O)c1sc(=S)c2c(C(=O)OCC)c(C(=O)OCC)sc2c1C(=O)OCC`, the GI50 in the experiment on DU-145 prostate was 17.4 µM; in the experiment on UACC-257 melanoma, 15.1 µM; in the experiment with SK-OV-3 ovarian, 43.3 µM; with ACHN renal it was 16.6 µM; in the experiment with NCI-H226 lung, 10.9 µM; in the experiment with SNB-75 CNS, 40.3 µM. For the same molecule, the GI50 with CAKI-1 renal is 26.5 µM; with OVCAR-5 ovarian, 17.6 µM; in the experiment on OVCAR-3 ovarian, 16 µM; in the experiment on LOX IMVI melanoma it was 14.1 µM. The TGI in the experiment on DU-145 prostate is 39 µM; in the experiment with UACC-257 melanoma, 39 µM; with SK-OV-3 ovarian, greater than 100 µM; in the experiment on ACHN renal, 39.4 µM; with NCI-H226 lung it was 26.7 µM; in the experiment with SNB-75 CNS, greater than 100 µM. Also, the TGI in the experiment with CAKI-1 renal amounted to 93.9 µM; with OVCAR-5 ovarian, 35.7 µM; in the experiment on OVCAR-3 ovarian it was 68 µM; with LOX IMVI melanoma, 27.9 µM.

Consider `C=C1C(=O)O[C@H]2[C@H]1CC/C(COC(=O)NCc1c[nH]c3ccc(Cl)cc13)=C\CC[C@@]1(C)O[C@@H]21`, for which the GI50 in the experiment on DU-145 prostate is 1.2 µM; in the experiment with UACC-257 melanoma, 1.63 µM; with SK-OV-3 ovarian it was 5.75 µM; with ACHN renal, 1.33 µM; with NCI-H226 lung it was 1.61 µM; in the experiment on SNB-75 CNS it was 1.29 µM. For the same molecule, the GI50 is 1.45 µM in the experiment with CAKI-1 renal, 1.77 µM with OVCAR-5 ovarian, 1.11 µM in the experiment on OVCAR-3 ovarian and 0.633 µM in the experiment on LOX IMVI melanoma. Besides, the TGI in the experiment on DU-145 prostate stood at 2.65 µM; in the experiment with UACC-257 melanoma it was 3.11 µM; with SK-OV-3 ovarian it was 18.9 µM; in the experiment with ACHN renal, 2.61 µM; with NCI-H226 lung it was 3.09 µM; in the experiment on SNB-75 CNS, 2.57 µM. Besides, the TGI turned out to be 2.81 µM with CAKI-1 renal, 4.01 µM in the experiment with OVCAR-5 ovarian, 2.7 µM in the experiment with OVCAR-3 ovarian and 2.03 µM with LOX IMVI melanoma.

For the molecule `CN(C)CCCc1c[nH]c2ccccc12`, the TGI in the experiment on DU-145 prostate, in the experiment on UACC-257 melanoma, in the experiment with SK-OV-3 ovarian, in the experiment on ACHN renal, in the experiment on NCI-H226 lung and with SNB-75 CNS was greater than 100 µM each time. Further, the TGI in the experiment with CAKI-1 renal, with OVCAR-5 ovarian, in the experiment with OVCAR-3 ovarian and in the experiment with LOX IMVI melanoma was greater than 100 µM in each case.

As for `CCC(=C/[C@H](C)C/C=C/C(C)=C/[C@@H](C)C(=O)[C@@H](C)[C@H](O)[C@@H](C)CC)/C=C/[C@H]1OC(=O)C=C[C@H]1C`, the GI50 with DU-145 prostate is less than 0.01 µM; in the experiment on UACC-257 melanoma, less than 0.01 µM; in the experiment with SK-OV-3 ovarian, less than 0.0221 µM; in the experiment on ACHN renal, less than 0.01 µM; with NCI-H226 lung it was less than 0.01 µM; in the experiment on SNB-75 CNS, less than 0.01 µM. Also, the GI50 in the experiment with CAKI-1 renal, in the experiment on OVCAR-5 ovarian, in the experiment with OVCAR-3 ovarian and with LOX IMVI melanoma was less than 0.01 µM throughout. Moreover, the TGI was determined as 2.69 µM in the experiment with DU-145 prostate; 1.55 µM in the experiment with UACC-257 melanoma; 3.44 µM in the experiment on SK-OV-3 ovarian; 1.37 µM in the experiment with ACHN renal; 0.598 µM with NCI-H226 lung; 0.0854 µM in the experiment with SNB-75 CNS. In addition, the results for the TGI in the experiment with CAKI-1 renal, in the experiment with OVCAR-5 ovarian and in the experiment with LOX IMVI melanoma were 1.8 µM, 1.35 µM and 1.11 µM, respectively.
